Source: patent US11426385B2, “Methods of improving cancer chemotherapy” (THE REGENTS OF THE UNIVERSITY OF CALIFORNIA, priority 2017, dated 2022)
Where “and” joins values, the source holds several entries; their conditions need not be identical. Identical values can stand only once.

How the values were obtained:
[1] = test system: COX-1; test: COX-1 inhibitory activity (Table 3); assay type: biochemical; design: dose or concentration left out as unconfirmed
[2] = test system: bladder cancer PDX BL0293; test: tumor growth and survival in NSG-PDX bladder cancer mouse model BL0293; assay type: in vivo, NSG mice
Description: (§1) Materials and Supplies. Bladder cancer subject-derived xenograft (PDX) models were provided by The Jackson Laboratory (JAX, Bar Harbor, Me.). […] All experiments utilized PDX models within the first five passages. […] Gemcitabine was purchased from LC Laboratories (Woburn, Mass.). […] The cell lines have not been tested and authenticated by the authors.
(§2) PDX bladder cancer. NSG PDX studies were performed at the University of California Davis with IACUC approval. […] Gemcitabine was dissolved in 0.9% saline and administered at a dose of 150 mg/kg (IP, weekly) for 4 weeks. Animal weight and tumor size were measured twice per week. […] The percentage of tumor growth inhibition (TGI) was calculated as follows; 100%×(1−[(V^treated(final day)−V^treated(initial day))/(V^control(final day)−V^control(initial day))]), where V is tumor volume.
(§3) Statistics. Data are presented as mean±standard error of the mean (SEM) or mean±standard deviation (SD). Group comparisons were carried out using one-way analysis of variance or Student's t test. Survival analysis was performed using the Kaplan-Meier method. A p value of less than 0.05 was considered statistically significant.

[3] = test system: p-ERK and p-AKT; test: Western blot of PDX BL0293 tumor tissue; assay type: in vivo, NSG mice; details: day 3; BL0293 tumors
Description: Blood samples from mice were collected and analyzed for complete blood count (CBC), blood urea nitrogen (BUN), aspartate aminotransferase (AST), creatinine and total bilirubin at the Veterinary Medicine Comparative Pathology Laboratory of University of California Davis. The tumor, heart, liver, spleen, lung and kidney were harvested and the tissue samples were fixed in formalin or frozen at −80° C. Tumor sections were stained with hematoxylin and eosin (H&E) or were used for immunohistochemistry analysis. A board-certified pathologist provided detailed interpretation of tumor histomorphology and scoring of immunohistochemical staining. Some of the tumor sections were lysed and chromatographed using SDS-PAGE followed by transfer onto a PVDF membrane. […] The membranes were then probed with horseradish peroxidase (HRP) tagged secondary antibodies and epitopes were detected using the ECL Plus Western Blotting Detection Reagent (GE Healthcare, Piscataway, N.J.). Cell proliferation and apoptosis assessed with Ki-67 and cleaved caspase-3 antibodies (Cell Signaling, Danvers, Mass.) using an immunohistochemistry kit per the manufacturer's instructions (BioGenex, Fremont, Calif.).

[4] = test system: 5637 bladder cancer cells; test: 72 hr cell viability assay (MTS) and combination index, 5637; assay type: cell-based, human; details: single drug, 72 hr
Description: Median effect analysis to determine in vitro drug-drug interaction. […] PTUPB was dissolved in dimethyl sulfoxide (DMSO) to a final stock concentration of 10 mM. […] Cells were seeded at 2,000-3,000 cells and 100 μl of medium per well into 96-well plates (Becton Dickinson, Franklin Lakes, N.J.), and incubated overnight. Different concentrations of these two drugs were diluted in culture media and added to each well. The plates were then incubated for an additional 72 hours. The control group was dosed with 0.2% DMSO. Cell viability assays (MTS) were performed according to the manufacturer's protocol (Promega, Madison, Wis.). […] Dose-response curves were generated with GraphPad Prism 5 software (GraphPad Software Inc., La Jolla, Calif.). The combination indices (CI) were determined based on the method of Chou et al (26). CI values were calculated with CompuSyn software (http://www.combosyn.com/).

[5] = test system: bladder cancer PDX BL0269; test: tumor growth in NSG-PDX bladder cancer mouse model BL0269; assay type: in vivo, NSG mice
Description: as §1, §2, §3

[6] = test system: COX-1 and COX-2; details: cited from earlier work
[7] = test system: carboplatin-DNA adducts in 5637 bladder cancer cell line; test: carboplatin-DNA adduct formation in vitro (accelerator mass spectrometry)
Description: (§4) Accelerator mass spectrometry to determine platinum-DNA adduct formation.
Cells were harvested at the 4 hr time point in one group of dishes and another group was washed and further incubated for 20 hr with fresh drug-free medium before cell harvest in order to determine DNA repair. Cell pellets were stored at −80° C. until DNA extraction.

[8] = test system: carboplatin-DNA adducts in BL0293 tumors; test: carboplatin-DNA adduct formation in vivo (accelerator mass spectrometry); details: carboplatin alone; 24 hours after carboplatin
Description: as §4
DNA was extracted using a Promega Wizard genomic DNA purification kit according to manufacturer's instructions. Ten micrograms of DNA per sample was submitted to Lawrence Livermore National Laboratory (LLNL) for AMS analysis using previously reported protocol (25).

| Compound | COX-1 (% inhibition) [1] [%] | further results |
| --- | --- | --- |
| NS(=O)(=O)c1ccc(-n2nc(CCCNC(=O)NC34CC5CC(CC(C5)C3)C4)cc2-c2ccccc2)cc1 [compound 2326, 4-{3-[3-(3-Adamantan-1-yl-ureido)-propyl]-5-phenyl-pyrazol-1-yl}-benzenesulfonamide] | 6.7 |  |
| NS(=O)(=O)c1ccc(-n2nc(CCCNC(=O)Nc3ccc(OC(F)(F)F)cc3)cc2-c2ccccc2)cc1 [compound 2329, 4-(5-Phenyl-3-{3-[3-(4-trifluoromethoxy-phenyl)-ureido]-propyl}-pyrazol-1-yl)-benzenesulfonamide] | 13.8 |  |
| NS(=O)(=O)c1ccc(-n2nc(NC(=O)Nc3cccc(C(F)(F)F)c3)cc2-c2ccccc2)cc1 [compound 2121, 4-{5-Phenyl-3-[3-(3-trifluoromethyl-phenyl)-ureido]-pyrazol-1-yl}-benzenesulfonamide] | 33.9 |  |
| CC(C)(C)c1cc(CNC(=O)Nc2cccc(C(F)(F)F)c2)nn1-c1ccc(S(C)(=O)=O)cc1 [compound 2106, 1-[5-tert-Butyl-1-(4-methanesulfonyl-phenyl)-1H-pyrazol-3-ylmethyl]-3-(3-trifluoromethyl-phenyl)-urea] | 2.4 |  |
| NS(=O)(=O)c1ccc(-n2nc(CCCNC(=O)Nc3cccc(C(F)(F)F)c3)cc2-c2ccccc2)cc1 [compound 2246, 4-(5-Phenyl-3-{3-[3-(3-trifluoromethyl-phenyl)-ureido]-propyl}-pyrazol-1-yl)-benzenesulfonamide] | 27.2 |  |
| Cc1ccc(-c2cc(CCCNC(=O)Nc3cccc(C(F)(F)F)c3)nn2-c2ccc(S(N)(=O)=O)cc2)cc1 [compound 2152, 4-(5-p-Tolyl-3-{3-[3-(3-trifluoromethyl-phenyl)-ureido]-propyl}-pyrazol-1-yl)-benzenesulfonamide] | 12.1 |  |
| CS(=O)(=O)c1ccc(-n2nc(CNC(=O)Nc3ccc(C(F)(F)F)cc3)cc2-c2ccccc2)cc1 [compound 2324, 1-[1-(4-Methanesulfonyl-phenyl)-5-phenyl-1H-pyrazol-3-ylmethyl]-3-(4-trifluoromethyl-phenyl)-urea] | 10.7 |  |
| N.N.[Cl][Pt][Cl] [cisplatin, reference compound] |  | overall survival ([2]; BL0293, PTUPB 30 mg/kg orally once daily, cisplatin 2 mg/kg i.v.): 47.0 days and 47 days; anti-tumor activity, single agent ([2]; mice bearing BL0293 tumors): moderate anti-tumor activity; levels of p-ERK and p-AKT [3]: did not significantly diminish; IC50 [4]: 4.5 µM; tumor growth [5]: resistant |
| CS(=O)(=O)c1ccc(-n2nc(CNC(=O)NC34CC5CC(CC(C5)C3)C4)cc2-c2ccccc2)cc1 [compound 1860, 1-Adamantan-1-yl-3-[1-(4-methanesulfonyl-phenyl)-5-phenyl-1H-pyrazol-3-ylmethyl]-urea] | 12.7 |  |
| O=C(NC12CC3CC(CC(C3)C1)C2)N[C@H]1CC[C@H](Oc2ccc(C(=O)O)cc2)CC1 [t-AUCB, trans-4-[4-(3-Adamantan-1-yl-ureido)-cyclohexyloxy]-benzoic acid] |  | potentiation of cisplatin with respect to inhibiting tumor growth ([5]; combined with cisplatin 2 mg/kg): moderate additive effect |
| CS(=O)(=O)c1ccc(-n2nc(CNC(=O)Nc3ccc(OC(F)(F)F)cc3)cc2-c2ccccc2)cc1 [compound 2323, 1-[1-(4-Methanesulfonyl-phenyl)-5-phenyl-1H-pyrazol-3-ylmethyl]-3-(4-trifluoromethoxy-phenyl)-urea] | 10.4 |  |
| CC(C)c1cccc(C(C)C)c1NC(=O)NCCCc1cc(-c2ccccc2)n(-c2ccc(S(N)(=O)=O)cc2)n1 [compound 2325, 4-(3-{3-[3-(2,6-Diisopropyl-phenyl)-ureido]-propyl}-5-phenyl-pyrazol-1-yl)-benzenesulfonamide] | 6.2 |  |
| NS(=O)(=O)c1ccc(-n2nc(CCCNC(=O)Nc3ccc(Cl)cc3)cc2-c2ccccc2)cc1 [compound 2327, 4-(3-{3-[3-(4-Chloro-phenyl)-ureido]-propyl}-5-phenyl-pyrazol-1-yl)-benzenesulfonamide] | 15.2 |  |
| COc1ccc2c(c1)c(CC(=O)O)c(C)n2C(=O)c1ccc(Cl)cc1 [indomethacin] |  | COX-2 (IC50)/COX-1 (IC50) ratio [6]: 33 |
| carboplatin |  | DNA repair rate ([7]; 5637 cells): 21.2 +/−1.3 adducts/10^8 nt per hour; platinum-DNA adduct formation ([7]; after 4h, carboplatin 100 μM, PTUPB 10 μM simultaneously): 528±41 adducts per 10^8 nt; platinum-DNA adduct levels ([7]; at 24 hours (4 hours drug, 20 hours drug-free medium)): 104.1 +/−17.7 adducts/10^8 nt; carboplatin induced DNA adduct formation ([7]; pretreatment with 10 μM PTUPB for 5 hours, then carboplatin): 706 +/−26 adducts per 10^8 nt; carboplatin-DNA adduct levels in tumor DNA [8]: 1070±317 adducts/10^8 nt |
| CS(=O)(=O)c1ccc(-n2nc(CNC(=O)Nc3cccc(C(F)(F)F)c3)cc2-c2ccccc2)cc1 [compound 1861, 1-[1-(4-Methanesulfonyl-phenyl)-5-phenyl-1H-pyrazol-3-ylmethyl]-3-(3-trifluoromethyl-phenyl)-urea] | 7.8 |  |
| CS(=O)(=O)c1ccc(-n2nc(CNC(=O)NC3CCCCCC3)cc2-c2ccccc2)cc1 [compound 2321, 1-Cycloheptyl-3-[1-(4-methanesulfonyl-phenyl)-5-phenyl-1H-pyrazol-3-ylmethyl]-urea] | 3.4 |  |
| NS(=O)(=O)c1ccc(-n2nc(CCCNC(=O)Nc3ccccc3)cc2-c2ccccc2)cc1 [compound 2245, 4-{5-Phenyl-3-[3-(3-phenyl-ureido)-propyl]-pyrazol-1-yl}-benzenesulfonamide] | 15.8 |  |
| NS(=O)(=O)c1ccc(-n2nc(CNC(=O)Nc3cccc(C(F)(F)F)c3)cc2-c2ccccc2)cc1 [compound 2107, 4-{5-Phenyl-3-[3-(3-trifluoromethyl-phenyl)-ureidomethyl]-pyrazol-1-yl}-benzenesulfonamide] | 16.9 |  |
| NS(=O)(=O)c1ccc(-n2nc(CCCNC(=O)NC3CCCCCC3)cc2-c2ccccc2)cc1 [compound 2247, 4-{3-[3-(3-Cycloheptyl-ureido)-propyl]-5-phenyl-pyrazol-1-yl}-benzenesulfonamide] | 10.2 |  |
| CC(=O)Oc1ccccc1C(=O)O [Aspirin, aspirin] |  | COX-2 (IC50)/COX-1 (IC50) ratio [6]: 0.32 |
| Nc1ccn([C@@H]2O[C@H](CO)[C@@H](O)C2(F)F)c(=O)n1 [gemcitabine] |  | tumor growth [5]: resistant |
| NS(=O)(=O)c1ccc(-n2nc(CCNC(=O)Nc3cccc(C(F)(F)F)c3)cc2-c2ccccc2)cc1 [compound 2313, 4-(5-Phenyl-3-{2-[3-(3-trifluoromethyl-phenyl)-ureido]-ethyl}-pyrazol-1-yl)-benzenesulfonamide] | 22.0 |  |
| CS(=O)(=O)c1ccc(-n2nc(CCCNC(=O)Nc3cccc(C(F)(F)F)c3)cc2-c2ccccc2)cc1 [compound 1862, 1-{3-[1-(4-Methanesulfonyl-phenyl)-5-phenyl-1H-pyrazol-3-yl]-propyl}-3-(3-trifluoromethyl-phenyl)-urea] | 6.4 |  |
